The source made the active and inactive calls. The calls are words filed in the database; no cut-off is given here.
How the values were obtained:
[1] = molecular target: T1, Ornithine decarboxylase (Rattus norvegicus) (UniProt P09057); assay: Compound was tested for its inhibition against ornithine decarboxylase from rat liver at low concentration; NA means not active
T1 sequence (whole entry): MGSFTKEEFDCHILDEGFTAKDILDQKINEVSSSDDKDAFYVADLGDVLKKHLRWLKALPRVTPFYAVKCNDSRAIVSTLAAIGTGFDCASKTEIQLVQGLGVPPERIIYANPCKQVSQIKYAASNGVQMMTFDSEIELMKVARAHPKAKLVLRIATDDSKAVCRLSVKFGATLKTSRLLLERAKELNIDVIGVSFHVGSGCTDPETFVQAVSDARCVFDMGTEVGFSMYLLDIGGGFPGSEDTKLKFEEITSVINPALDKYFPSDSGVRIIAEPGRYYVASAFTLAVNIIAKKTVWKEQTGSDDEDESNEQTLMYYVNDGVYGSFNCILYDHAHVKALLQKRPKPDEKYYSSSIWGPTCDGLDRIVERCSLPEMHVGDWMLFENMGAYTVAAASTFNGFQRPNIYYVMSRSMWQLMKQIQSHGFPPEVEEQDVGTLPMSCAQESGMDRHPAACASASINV

[2] = tested on: Mus musculus; assay: Compound was tested against P388 Leukemia cells in mouse at the dose of 150 mg/kg ip, activity expressed as T/C; assay type: functional
[3] = tested on: Mus musculus; assay: Compound was tested against P388 Leukemia cells in mouse at the dose of 50 mg/kg ip, activity expressed as T/C; assay type: functional

Row | SMILES | Activity [1] | T/C [2] | T/C [3]
1 | CCP(=O)(O)C(N)CCCN.Cl (stereo unspecified) | inactive | 100 | 100
2 | CCP(=O)(O)C(C)(N)CCCN.Cl (stereo unspecified) | inactive | 98 | 98

From ChEMBL document CHEMBL1123051, “In the search for new anticancer drugs. 13. Phosphonic and phosphinic analogues of ornithine” (1985)
